This is an account of results in patent US8435978B2, “Substituted sulfonamide compounds” (Gruenenthal GmbH, priority 2006, dated 2013).

By inhibition is commonly meant the change of the read-out against control, counted positive when it falls. The ED50 is the dose at which the effect has come halfway, by size or by number of responders. A low value points to an effect at a small dose.

One test concerns the target T1, B1R receptor of the rat (Rattus norvegicus, UniProt P97583).
T1 construct: host or cells: CHO K1 cells (Chinese hamster ovary), stably transfected
T1 sequence (P97583 1-337): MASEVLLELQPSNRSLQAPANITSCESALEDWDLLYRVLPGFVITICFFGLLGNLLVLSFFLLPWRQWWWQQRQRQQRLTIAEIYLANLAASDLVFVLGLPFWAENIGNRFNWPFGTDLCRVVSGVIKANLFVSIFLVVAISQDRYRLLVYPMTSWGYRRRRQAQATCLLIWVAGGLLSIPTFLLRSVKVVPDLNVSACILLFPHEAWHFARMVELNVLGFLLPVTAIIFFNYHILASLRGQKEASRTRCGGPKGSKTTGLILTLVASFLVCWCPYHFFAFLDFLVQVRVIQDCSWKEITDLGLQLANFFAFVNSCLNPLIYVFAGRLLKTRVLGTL
Kind of test: Functional study on the bradykinin receptor 1 (B1R), FLIPR Ca2+ assay, rB1R cells. The test is classed as cell-based. The settings on record: agonist Des-Arg9-bradykinin 100 nM, % inhibition compared with the maximum achievable inhibition; for inhibition at 10 µM: CHO-K1, test substance 10 μM, read-out: B1R Antagonism, rat [10 μM] % Inhibition; for B1R Antagonism, rat [10 μM] % Inhibition: test substance 10 μM, rB1R CHO K1 cells. An outline of the steps: (§1)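 FLIPR Ca2+ assay in recombinant CHO K1 cells (human or rat B1R), Fluo-4 dye; 10 μM compound, 10 min, then EC-level agonist per species (0.5 nM Lys-Des-Arg9-BK human / 100 nM Des-Arg9-BK rat). Output: % inhibition vs maximum.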

The target of the next test is T2, human B1R receptor (Homo sapiens, UniProt P46663).
T2 construct: host or cells: CHO K1 cells (Chinese hamster ovary), stably transfected
T2 sequence (P46663 1-353): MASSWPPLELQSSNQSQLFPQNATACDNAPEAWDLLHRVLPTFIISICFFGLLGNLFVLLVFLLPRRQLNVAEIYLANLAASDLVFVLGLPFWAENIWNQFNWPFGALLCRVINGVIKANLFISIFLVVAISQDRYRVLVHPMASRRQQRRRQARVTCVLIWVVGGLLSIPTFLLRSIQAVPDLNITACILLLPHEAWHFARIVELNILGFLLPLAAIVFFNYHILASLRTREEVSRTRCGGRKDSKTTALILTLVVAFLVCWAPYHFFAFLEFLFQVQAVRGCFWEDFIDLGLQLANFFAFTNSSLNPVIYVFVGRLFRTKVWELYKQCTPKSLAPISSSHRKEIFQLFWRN
Kind of test: Functional study on the bradykinin receptor 1 (B1R), FLIPR Ca2+ assay, hB1R cells. In kind it is cell-based. The conditions noted are these: agonist Lys-Des-Arg9-bradykinin 0.5 nM, % inhibition compared with the maximum achievable inhibition; for inhibition at 10 µM: CHO-K1, test substance 10 μM, read-out: B1R Antagonism, human [10 μM] % Inhibition; for B1R Antagonism, human [10 μM] % Inhibition: test substance 10 μM, hB1R CHO K1 cells. In short, it runs like this: as §1

In test [1] the test system is formalin-induced pain behavior. Briefly: Formalin test in the mouse (phase 2, chronic pain component). The test is classed as in vivo. The conditions noted are these: iv, 5 min. before formalin injection, observation 21 to 24 minutes after formalin. The method, then:
The formalin test (Dubuisson, D. and Dennis, S. G., 1977, Pain, 4, 161-174) represents a model for both acute and chronic pain. By means of a single formalin injection into the dorsal side of a rear paw, a biphasic nociceptive reaction is induced in freely mobile test animals; the reaction is detected by observing three behaviour patterns which are clearly distinguishable from one another. The reaction is two-phase: phase 1=immediate reaction (duration up to 10 min., shaking of the paw, licking), phase 2=late reaction (after a rest phase; likewise shaking of the paw, licking; duration up to 60 min.). The 1st phase reflects a direct stimulation of the peripheral nocisensors with high spinal nociceptive input (acute pain phase); the 2nd phase reflects a spinal and peripheral hypersensitization (chronic pain phase). In the studies described here, the chronic pain component (phase 2) has been evaluated. Formalin in a volume of 20 μl and a concentration of 1% is administered subcutaneously into the dorsal side of the right rear paw of each animal. The specific changes in behavior, such as lifting, shaking or licking of the paw (score 3, Dubuisson & Dennis, 1977), are observed and recorded in the observation period of 21 to 24 minutes following the formalin injection. The behaviour of the animals after administration of the substance (n=10 per dose of substance) was compared with a control group which received vehicle (n=10). Based on the quantification of the pain behavior, the action of the substance in the formalin test was determined as the change in percent compared with the control. The ED50 calculations (ED50=mean effective dose) were carried out by regression analysis according to the method of Litchfield and Wilcoxon (Litchfield, J. T., Wilcoxon, J. J., 1949, J. Pharmacol. Exp. Ther. 96, 99-113). The time of administration before the formalin injection was chosen in dependence on the mode of administration of the compounds according to the invention (intravenous: 5 min.).

On to `COc1cc(C)c(S(=O)(=O)N2CCCCC2COCC(=O)N2CCN(C3CCN(C)CC3)CC2)c(C)c1.Cl.Cl` (centres unmarked) [Example 97, 2-((1-(4-methoxy-2,6-dimethylphenylsulfonyl)piperidin-2-yl)methoxy)-1-(4-(1-methylpiperidin-4-yl)piperazin-1-yl)ethanone dihydrochloride], for which the inhibition at 10 µM was determined as 98.2% at B1R receptor of the rat and 98% on human B1R receptor. In test [1], this molecule had an ED50 of 13.3 mg/kg.
`COc1cc(C)c(S(=O)(=O)N2CCCCC2COCC(=O)N2CCC(N3CCN4CCCCC4C3)CC2)c(C)c1` (centres unmarked) [Example 98, 1-(4-(dihydro-1H-pyrido[1,2-a]pyrazin-2(6H,7H,8H,9H,9aH)-yl)piperidin-1-yl)-2-((1-(4-methoxy-2,6-dimethylphenylsulfonyl)piperidin-2-yl)methoxy)ethanone]: the inhibition at 10 µM amounted to 101% on B1R receptor of the rat and 104% on human B1R receptor. Besides, in test [1], the ED50 is 13.6 mg/kg.
Turning to `COc1cc(C)c(S(=O)(=O)N2CCCCC2COCC(=O)N(C)Cc2ccc(C3=NCCN3)cc2)c(C)c1.Cl` (centres unmarked) [Example 193, N-(4-(4,5-dihydro-1H-imidazol-2-yl)benzyl)-2-((1-(4-methoxy-2,6-dimethylphenylsulfonyl)piperidin-2-yl)methoxy)-N-methylacetamide hydrochloride], the figures for the inhibition at 10 µM on B1R receptor of the rat and at human B1R receptor were 98.3% and 104%, respectively. Also, in test [1], it took a dose of 2.59 mg/kg to reach the 50% effect level (ED50).
Consider `CN(C)c1ccc(CNC(=O)COCC2CCCN2S(=O)(=O)c2c(Cl)cc(Cl)cc2Cl)cc1` (centres unmarked) [Example 575, N-(4-(dimethylamino)benzyl)-2-((1-(2,4,6-trichlorophenylsulfonyl)pyrrolidin-2-yl)methoxy)acetamide], for which the inhibition at 10 µM worked out at 96.8% at B1R receptor of the rat and 23.4% on human B1R receptor.
For `COc1cc(C)c(S(=O)(=O)N2CCCC2COCC(=O)NCc2ccc(N(C)C)cc2)c(C)c1` (centres unmarked) [Example 576, N-(4-(dimethylamino)benzyl)-2-((1-(4-methoxy-2,6-dimethylphenylsulfonyl)pyrrolidin-2-yl)methoxy)acetamide] the same measures were 107% and 1.85%.
For `COc1cc(C)c(S(=O)(=O)N2CCCCC2COCC(=O)NCc2ccc(N(C)C)cc2)c(C)c1` (centres unmarked) [Example 577, N-(4-(dimethylamino)benzyl)-2-((1-(4-methoxy-2,6-dimethylphenylsulfonyl)piperidin-2-yl)methoxy)acetamide] the same measures were 107% and 17.3%.
As for `CN(C)c1ccc(CNC(=O)COCC2CCCCN2S(=O)(=O)c2c(Cl)cc(Cl)cc2Cl)cc1` (centres unmarked) [Example 578, N-(4-(dimethylamino)benzyl)-2-((1-(2,4,6-trichlorophenylsulfonyl)piperidin-2-yl)methoxy)acetamide], the inhibition at 10 µM on B1R receptor of the rat was 87.1%; at human B1R receptor it was 8.96%.
Consider `COc1cc(C)c(S(=O)(=O)N2CCCC2COCC(=O)NCc2ccc(N3CCOCC3)cc2)c(C)c1` (centres unmarked) [Example 579, 2-((1-(4-methoxy-2,6-dimethylphenylsulfonyl)pyrrolidin-2-yl)methoxy)-N-(4-morpholinobenzyl)acetamide], for which the inhibition at 10 µM on B1R receptor of the rat was found to be 107%; at human B1R receptor, 39.4%.
For `O=C(COCC1CCCN1S(=O)(=O)c1c(Cl)cc(Cl)cc1Cl)NCc1ccc(N2CCOCC2)cc1` (centres unmarked) [Example 580, N-(4-morpholinobenzyl)-2-((1-(2,4,6-trichlorophenylsulfonyl)pyrrolidin-2-yl)methoxy)acetamide] the same measures were 88.5% and 39.1%.
Turning to `O=C(COCC1CCCCN1S(=O)(=O)c1c(Cl)cc(Cl)cc1Cl)NCc1ccc(N2CCOCC2)cc1` (centres unmarked) [Example 581, N-(4-morpholinobenzyl)-2-((1-(2,4,6-trichlorophenylsulfonyl)piperidin-2-yl)methoxy)acetamide], the inhibition at 10 µM on B1R receptor of the rat stood at 76.3%; on human B1R receptor, 27.5%.
With “N-(3-(1H-benzo[d]imidazol-2-yl)propyl)-2-((1-(4-methoxy-2,6-dimethylphenylsulfonyl)piperidin-2-yl)methoxy)acetamide [Example 525]”, the “B1R Antagonism, rat [10 μM] % Inhibition” value on B1R receptor of the rat is given as 102.31%. Besides, the “B1R Antagonism, human [10 μM] % Inhibition” value at human B1R receptor was determined as 15.41%.
On to “N-(4-(2-(1H-benzo[d]imidazol-2-yl)ethyl)phenyl)-2-((1-(4-methoxy-2,6-dimethylphenylsulfonyl)pyrrolidin-2-yl)methoxy)acetamide [Example 472]”, for which, on B1R receptor of the rat, the “B1R Antagonism, rat [10 μM] % Inhibition” value is 101.17%. The “B1R Antagonism, human [10 μM] % Inhibition” value on human B1R receptor came to 92.06%.
As for “N-(4-(dimethylamino)butyl)-2-((1-(2,4,6-trichlorophenylsulfonyl)pyrrolidin-2-yl)methoxy)acetamide [Example 294]”, the “B1R Antagonism, rat [10 μM] % Inhibition” value on B1R receptor of the rat is listed as 100%. Besides, at human B1R receptor, the “B1R Antagonism, human [10 μM] % Inhibition” value came out at 105.91%.
